This passage reports melting point results from patent publication US8063048B2, “Acetylenyl-pyrazolo-pyrimidine derivatives” (Hoffmann-La Roche Inc., priority 2005, dated 2011).

In general, melting point refers to the temperature, or range, at which the solid turns liquid.

Molecule `Cc1cc(CNS(=O)(=O)c2ccc(C#Cc3cnn4c(C(F)(F)F)cc(-c5ccc(C(F)(F)F)cc5)nc34)s2)cc(C)n1` [Example 283, 5-[7-Trifluoromethyl-5-(4-trifluoromethyl-phenyl)-pyrazolo[1,5-a]pyrimidin-3-ylethynyl]-thiophene-2-sulfonic acid (2,6-dimethyl-pyridin-4-ylmethyl)-amide] registered a melting point of 200 °C.
`Cc1cc(C#Cc2cnn3c(C(F)(F)F)cc(-c4ccc(C(F)(F)F)cc4)nc23)cnc1N` [Example 127, 3-Methyl-5-[7-trifluoromethyl-5-(4-trifluoromethyl-phenyl)-pyrazolo[1,5-a]pyrimidin-3-ylethynyl]-pyridin-2-ylamine] showed a melting point of 233 to 234 °C.
In turn, `CC(C)(CO)NS(=O)(=O)c1cncc(C#Cc2cnn3c(C4CC4)cc(-c4ccc(C(F)(F)F)cc4)nc23)c1` [Example 78, 5-[7-Cyclopropyl-5-(4-trifluoromethyl-phenyl)-pyrazolo[1,5-a]pyrimidin-3-ylethynyl]-pyridine-3-sulfonic acid (2-hydroxy-1,1-dimethyl-ethyl)-amide] gave a melting point of 190 to 191 °C.
`Nc1ccc(C#Cc2cnc3c(C(F)(F)F)cc(-c4ccc(C(F)(F)F)cc4)nn23)cn1` [Example 232, 5-[8-Trifluoromethyl-6-(4-trifluoromethyl-phenyl)-imidazo[1,2-b]pyridazin-3-ylethynyl]-pyridin-2-ylamine]: the melting point was 267 °C.
The molecule `Cc1ccc(C#Cc2cnn3c(C(F)F)cc(-c4ccc(C(F)(F)F)cc4)nc23)cc1S(=O)(=O)NCCO` [Example 61, 5-[7-Difluoromethyl-5-(4-trifluoromethyl-phenyl)-pyrazolo[1,5-a]pyrimidin-3-ylethynyl]-N-(2-hydroxy-ethyl)-2-methyl-benzenesulfonamide] yielded a melting point of 184 to 186 °C.
For `O=S(=O)(NCCO)c1cccc(C#Cc2cnn3c(C(F)F)cc(-c4ccc(C(F)(F)F)cc4)nc23)c1` [Example 147, 3-[7-Difluoromethyl-5-(4-trifluoromethyl-phenyl)-pyrazolo[1,5-a]pyrimidin-3-ylethynyl]-N-(2-hydroxy-ethyl)-benzenesulfonamide] the value was 113 to 115 °C; for `CNc1ccc(C#Cc2cnn3c(C(F)(F)F)cc(-c4ccc(C(F)(F)F)cc4)nc23)cn1` [Example 199, Methyl-{5-[7-trifluoromethyl-5-(4-trifluoromethyl-phenyl)-pyrazolo[1,5-a]pyrimidin-3-ylethynyl]-pyridin-2-yl}-amine], 187 °C.
`Nc1ccc(C#Cc2cnn3c(C4CC4)cc(-c4ccc(Cl)cc4)nc23)cn1` [Example 294, 5-[5-(4-Chloro-phenyl)-7-cyclopropyl-pyrazolo[1,5-a]pyrimidin-3-ylethynyl]-pyridin-2-ylamine] showed a melting point of 233 to 235 °C.
For `OCc1cccc(C#Cc2cnn3c(C(F)(F)F)cc(-c4ccc(C(F)(F)F)cc4)nc23)c1` [Example 204, {3-[7-Trifluoromethyl-5-(4-trifluoromethyl-phenyl)-pyrazolo[1,5-a]pyrimidin-3-ylethynyl]-phenyl}-methanol] the value was 177 °C; for `COCCNS(=O)(=O)c1cccc(C#Cc2cnn3c(C(F)F)cc(-c4ccc(C(F)(F)F)cc4)nc23)c1` [Example 146, 3-[7-Difluoromethyl-5-(4-trifluoromethyl-phenyl)-pyrazolo[1,5-a]pyrimidin-3-ylethynyl]-N-(2-methoxy-ethyl)-benzenesulfonamide], 147 to 148 °C; for `Nc1ncc(C#Cc2cnc3ccc(-c4ccc(C(F)(F)F)cc4)cn23)cn1` [Example 238, 5-[6-(4-Trifluoromethyl-phenyl)-imidazo[1,2-a]pyridin-3-ylethynyl]-pyrimidin-2-ylamine], 244 to 246 °C.
`NS(=O)(=O)c1ccc(C#Cc2cnn3c(C(F)(F)F)cc(-c4ccc(Cl)c(Cl)c4)nc23)s1` [Example 89, 5-[5-(3,4-Dichloro-phenyl)-7-trifluoromethyl-pyrazolo[1,5-a]pyrimidin-3-ylethynyl]-thiophene-2-sulfonic acid amide] registered a melting point of 231 to 232 °C.
Turning to `O=S(=O)(c1cccc(C#Cc2cnn3c(C(F)F)cc(-c4ccc(C(F)(F)F)cc4)nc23)c1)N1CCOCC1` [Example 144, 7-Difluoromethyl-3-[3-(morpholine-4-sulfonyl)-phenylethynyl]-5-(4-trifluoromethyl-phenyl)-pyrazolo[1,5-a]pyrimidine], the melting point fell in the range of 175 to 176 °C.
As for `Cc1cc(-c2cc(C(F)F)n3ncc(C#Cc4ccc(S(=O)(=O)NCCN(C)C)s4)c3n2)ccc1Cl` [Example 256, 5-[5-(4-Chloro-3-methyl-phenyl)-7-difluoromethyl-pyrazolo[1,5-a]pyrimidin-3-ylethynyl]-thiophene-2-sulfonic acid (2-dimethylamino-ethyl)-amide], the figure is 149 °C; as for `CC(=O)Nc1ccc(C#Cc2cnn3c(C(F)(F)F)cc(-c4ccc(C(F)(F)F)cc4)nc23)cc1` [Example 207, N-{4-[7-Trifluoromethyl-5-(4-trifluoromethyl-phenyl)-pyrazolo[1,5-a]pyrimidin-3-ylethynyl]-phenyl}-acetamide], 238 °C; as for `Cc1cc(-c2ccc(C(F)(F)F)cc2)cn2c(C#Cc3cncc(S(N)(=O)=O)c3)cnc12` [Example 229, 5-[8-Methyl-6-(4-trifluoromethyl-phenyl)-imidazo[1,2-a]pyridin-3-ylethynyl]-pyridine-3-sulfonic acid amide], 294 °C.
For the molecule `Cc1cc(-c2cc(C(F)F)n3ncc(C#Cc4ccc(S(=O)(=O)NC(C)(C)CO)s4)c3n2)ccc1Cl` [Example 175, 5-[5-(4-Chloro-3-methyl-phenyl)-7-difluoromethyl-pyrazolo[1,5-a]pyrimidin-3-ylethynyl]-thiophene-2-sulfonic acid (2-hydroxy-1,1-dimethyl-ethyl)-amide], the melting point was found to be 145 °C.
Molecule `CS(=O)(=O)c1cccc(C#Cc2cnn3c(C(F)(F)F)cc(-c4ccc(C(F)(F)F)cc4)nc23)c1` [Example 40, 3-(3-Methanesulfonyl-phenylethynyl)-7-trifluoromethyl-5-(4-trifluoromethyl-phenyl)-pyrazolo[1,5-a]pyrimidine] came in with a melting point of 214 °C.
The molecule `Cc1cc(-c2ccc(C(F)(F)F)cc2)nc2c(C#Cc3cccc(S(N)(=O)=O)c3)cnn12` [Example 151, 3-[7-Methyl-5-(4-trifluoromethyl-phenyl)-pyrazolo[1,5-a]pyrimidin-3-ylethynyl]-benzenesulfonamide] came in with a melting point of 214 to 216 °C.
In turn, `CC(C)(CO)NS(=O)(=O)c1cccc(C#Cc2cnn3c(C(F)(F)F)cc(-c4cccc(C(F)(F)F)c4)nc23)c1` [Example 107, N-(2-Hydroxy-1,1-dimethyl-ethyl)-3-[7-trifluoromethyl-5-(3-trifluoromethyl-phenyl)-pyrazolo[1,5-a]pyrimidin-3-ylethynyl]-benzenesulfonamide] registered a melting point of 132 °C.
As for `OCCNc1ccc(C#Cc2cnn3c(C(F)(F)F)cc(-c4ccc(C(F)(F)F)cc4)nc23)cn1` [Example 200, 2-{5-[7-Trifluoromethyl-5-(4-trifluoromethyl-phenyl)-pyrazolo[1,5-a]pyrimidin-3-ylethynyl]-pyridin-2-ylamino}-ethanol], the melting point fell in the range of 202 to 203 °C.
